The values below come from patent publication US20080125469A1, “Thiadiazole compounds and methods of use thereof” (Wyeth, priority 2006, published 2008).

For the experiment, the target named is T1, purified recombinant human Aggrecanase-2 (Agg2-Phe628) (Homo sapiens, UniProt Q9UNA0).
T1 construct: (Agg2-Phe628) (MW=41,737), which is a truncated form of full-length human aggrecanase-2; made in house; host or cells: CHO cells
T1 sequence (Q9UNA0 262-628 limits assumed): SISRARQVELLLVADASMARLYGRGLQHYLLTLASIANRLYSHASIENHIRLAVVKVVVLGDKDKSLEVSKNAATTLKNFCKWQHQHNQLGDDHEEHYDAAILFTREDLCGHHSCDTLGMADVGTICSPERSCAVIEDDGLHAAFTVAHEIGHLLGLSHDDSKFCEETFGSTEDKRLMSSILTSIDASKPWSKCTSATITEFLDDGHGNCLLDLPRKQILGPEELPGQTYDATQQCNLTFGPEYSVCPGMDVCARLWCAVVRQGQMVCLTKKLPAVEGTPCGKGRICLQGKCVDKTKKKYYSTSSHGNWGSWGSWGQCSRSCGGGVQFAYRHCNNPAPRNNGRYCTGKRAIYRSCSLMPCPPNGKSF
The experiment in a line: Aggrecanase 2 continuous in vitro fluorescence assay. The class given is biochemical. The following applies: for % Inhibition: inhibitor concentration not given; for IC50: Agg2-Phe628 0.5 μg/ml, substrate 25 μM, 30° C., read-out: IC50.

With “1-(4-chlorobenzoyl)-5′-(4-methoxyphenyl)-3′H-spiro[indole-3,2′-[1,3,4]thiadiazol]-2(1H)-one [Compound 36]”, the “% Inhibition” value came out at 48%.
In the case of “1-[2-(dimethylamino)ethyl]-5′-(4-methoxyphenyl)-3′H-spiro[indole-3,2′-[1,3,4]thiadiazol]-2(1H)-one [Compound 11]”, the “% Inhibition” value turned out to be 30%.
For “1-benzyl-5′-(4-methoxyphenyl)-3′H-spiro[indole-3,2′-[1,3,4]thiadiazol]-2(1H)-one [Compound 10]”, the IC50 came to 874 nM.
As to “5-chloro-5′-(4-methoxyphenyl)-3′H-spiro[indole-3,2′-[1,3,4]thiadiazol]-2(1H)-one [Compound 13]”, the half-inhibitory concentration (IC50) was 1960 nM.
With “5′-(4-methoxyphenyl)-1-[3-(trifluoromethyl)phenyl]-3′H-spiro[indole-3,2′-[1,3,4]thiadiazol]-2(1H)-one [Compound 8]”, the half-maximal inhibitory concentration (IC50) is 1180 nM.
For `COc1ccc(C2=NNC3(S2)C(=O)Nc2c(C)cc(C)cc23)cc1` (stereo not shown) [Compound 1, 5′-(4-methoxyphenyl)-5,7-dimethyl-3′H-spiro[indole-3,2′-[1,3,4]thiadiazol]-2(1H)-one], the IC50 was found to be 3060 nM.
Still for that read-out and setting: to `COc1ccc(C2=NNC3(S2)C(=O)N(C)c2ccccc23)cc1` (stereo not shown) [Compound 2, 5′-(4-methoxyphenyl)-1-methyl-3′H-spiro[indole-3,2′-[1,3,4]thiadiazol]-2(1H)-one] belongs greater than 7000 nM; to `COc1ccc(C2=NNC3(S2)C(=O)Nc2ccccc23)cc1` (stereo not shown) [Compound 3, 5′-(4-methoxyphenyl)-3′H-spiro[indole-3,2′-[1,3,4]thiadiazol]-2(1H)-one], 13400 nM; to `COc1ccc(C2=NNC3(S2)C(=O)Nc2ccc(Br)cc23)cc1` (stereo not shown) [Compound 4, 5-bromo-5′-(4-methoxyphenyl)-3′H-spiro[indole-3,2′-[1,3,4]thiadiazol]-2(1H)-one], 2410 nM.
The same measure, in the same setting: to `COc1ccc(C2=NNC3(S2)C(=O)Nc2ccc(C)cc23)cc1` (stereo not shown) [Compound 5, 5′-(4-methoxyphenyl)-5-methyl-3′H-spiro[indole-3,2′-[1,3,4]thiadiazol]-2(1H)-one] belongs 2530 nM; to `COc1ccc(C2=NNC3(S2)C(=O)Nc2ccc(OC)cc23)cc1` (stereo not shown) [Compound 6, 5-methoxy-5′-(4-methoxyphenyl)-3′H-spiro[indole-3,2′-[1,3,4]thiadiazol]-2(1H)-one], greater than 2500 nM; to `C#CCN1C(=O)C2(NN=C(c3ccc(OC)cc3)S2)c2ccccc21` (stereo not shown) [Compound 7, 5′-(4-methoxyphenyl)-1-prop-2-yn-1-yl-3′H-spiro[indole-3,2′-[1,3,4]thiadiazol]-2(1H)-one], 2470 nM.
On to `COc1ccc(C2=NNC3(S2)C(=O)Nc2cc(Cl)ccc23)cc1` (stereo not shown) [Compound 12, 6-chloro-5′-(4-methoxyphenyl)-3′H-spiro[indole-3,2′-[1,3,4]thiadiazol]-2(1H)-one], for which the IC50 amounted to 1190 nM.
Take `COc1ccc(C2=NNC3(S2)C(=O)Nc2cccc(N4CCN(Cc5ccccc5)CC4)c23)cc1` (stereo not shown) [Compound 14, 4-(4-benzylpiperazin-1-yl)-5′-(4-methoxyphenyl)-3′H-spiro[indole-3,2′-[1,3,4]thiadiazol]-2(1H)-one]: the “% Inhibition” value was determined as 50%.
`CCCc1ccc2c(c1)NC(=O)C21NN=C(c2ccc(OC)cc2)S1` (stereo not shown) [Compound 15, 5′-(4-methoxyphenyl)-6-propyl-3′H-spiro[indole-3,2′-[1,3,4]thiadiazol]-2(1H)-one]: the IC50 was found to be 775 nM.
Still for that read-out and setting: the same measure for `COc1ccc(C2=NNC3(S2)C(=O)Nc2ccc([N+](=O)[O-])cc23)cc1` (stereo not shown) [Compound 16, 5′-(4-methoxyphenyl)-5-nitro-3′H-spiro[indole-3,2′-[1,3,4]thiadiazol]-2(1H)-one]: 4430 nM; for `COc1ccc(C2=NNC3(S2)C(=O)Nc2c3ccc(Cl)c2C)cc1` (stereo not shown) [Compound 17, 6-chloro-5′-(4-methoxyphenyl)-7-methyl-3′H-spiro[indole-3,2′-[1,3,4]thiadiazol]-2(1H)-one]: 1040 nM; for `COc1ccc(C2=NNC3(S2)C(=O)Nc2c(C)cccc23)cc1` (stereo not shown) [Compound 18, 5′-(4-methoxyphenyl)-7-methyl-3′H-spiro[indole-3,2′-[1,3,4]thiadiazol]-2(1H)-one]: 3750 nM.
Consider `COc1ccc(C2=NNC3(S2)C(=O)Nc2cc(C)ccc23)cc1` (stereo not shown) [Compound 19, 5′-(4-methoxyphenyl)-6-methyl-3′H-spiro[indole-3,2′-[1,3,4]thiadiazol]-2(1H)-one], for which the IC50 is 1400 nM.
`COc1ccc(C2=NNC3(S2)C(=O)Nc2c3ccc(C)c2OC)cc1` (stereo not shown) [Compound 20, 7-methoxy-5′-(4-methoxyphenyl)-6-methyl-3′H-spiro[indole-3,2′-[1,3,4]thiadiazol]-2(1H)-one]: the IC50 amounted to 5920 nM.
As for `CCN1C(=O)C2(NN=C(c3ccc(OC)cc3)S2)c2cc(F)c(N3CCN(C)CC3)cc21` (stereo not shown) [Compound 21, 1-ethyl-5-fluoro-5′-(4-methoxyphenyl)-6-(4-methylpiperazin-1-yl)-3′H-spiro[indole-3,2′-[1,3,4]thiadiazol]-2(1H)-one], the IC50 came out at 5420 nM.
In the case of `COc1ccc(C2=NNC3(S2)C(=O)N(c2ccccc2C)c2ccc(C)cc23)cc1` (stereo not shown) [Compound 23, 5′-(4-methoxyphenyl)-5-methyl-1-(2-methylphenyl)-3′H-spiro[indole-3,2′-[1,3,4]thiadiazol]-2(1H)-one], the IC50 worked out at 899 nM.
For the compound `COc1ccc(C2=NNC3(S2)C(=O)N(c2ccc(C)cc2)c2ccc(C)cc23)cc1` (stereo not shown) [Compound 24, 5′-(4-methoxyphenyl)-5-methyl-1-(4-methylphenyl)-3′H-spiro[indole-3,2′-[1,3,4]thiadiazol]-2(1H)-one], the “% Inhibition” value is 39%.
For `COc1ccc(C2=NNC3(S2)C(=O)N(c2ccc(Cl)cc2)c2ccc(C)cc23)cc1` (stereo not shown) [Compound 25, 1-(4-chlorophenyl)-5′-(4-methoxyphenyl)-5-methyl-3′H-spiro[indole-3,2′-[1,3,4]thiadiazol]-2(1H)-one], the IC50 came out at 1480 nM.
In the case of `COc1ccc(C2=NNC3(S2)C(=O)N(c2ccc(Cl)c(Cl)c2)c2ccc(C)cc23)cc1` (stereo not shown) [Compound 26, 1-(3,4-dichlorophenyl)-5′-(4-methoxyphenyl)-5-methyl-3′H-spiro[indole-3,2′-[1,3,4]thiadiazol]-2(1H)-one], the concentration for half-maximal inhibition (IC50) came to 1260 nM.
With `COc1ccc(C2=NNC3(S2)C(=O)N(c2cccc([N+](=O)[O-])c2)c2ccc(C)cc23)cc1` (stereo not shown) [Compound 27, 5′-(4-methoxyphenyl)-5-methyl-1-(3-nitrophenyl)-3′H-spiro[indole-3,2′-[1,3,4]thiadiazol]-2(1H)-one], the half-inhibitory concentration (IC50) turned out to be 995 nM.
On to `CCCc1ccc2c(c1)N(Cc1ccccc1)C(=O)C21NN=C(c2ccc(OC)cc2)S1` (stereo not shown) [Compound 28, 1-benzyl-5′-(4-methoxyphenyl)-6-propyl-3′H-spiro[indole-3,2′-[1,3,4]thiadiazol]-2(1H)-one], for which the IC50 was 950 nM.
`CCc1ccc2c(c1)C1(NN=C(c3ccc(OC)cc3)S1)C(=O)N2` (stereo not shown) [Compound 29, 5-ethyl-5′-(4-methoxyphenyl)-3′H-spiro[indole-3,2′-[1,3,4]thiadiazol]-2(1H)-one]: the half-inhibitory concentration (IC50) came out at 1360 nM.
Regarding `CCc1ccc2c(c1)C1(NN=C(c3cccc(OC)c3)S1)C(=O)N2` (stereo not shown) [Compound 30, 5-ethyl-5′-(3-methoxyphenyl)-3′H-spiro[indole-3,2′-[1,3,4]thiadiazol]-2(1H)-one], the concentration for half-maximal inhibition (IC50) stood at 5930 nM.
On to `O=C1Nc2ccc(OC(F)(F)F)cc2C12NN=C(c1ccccc1)S2` (stereo not shown) [Compound 31, 5′-phenyl-5-(trifluoromethoxy)-3′H-spiro[indole-3,2′-[1,3,4]thiadiazol]-2(1H)-one], for which the half-maximal inhibitory concentration (IC50) worked out at 7220 nM.
In the case of `Cc1ccc(C2=NNC3(S2)C(=O)N(c2ccccc2C)c2ccc(C)cc23)cc1` (stereo not shown) [Compound 32, 5-methyl-1-(2-methylphenyl)-5′-(4-methylphenyl)-3′H-spiro[indole-3,2′-[1,3,4]thiadiazol]-2(1H)-one], the IC50 was 1220 nM.
Turning to `Cc1ccc(C2=NNC3(S2)C(=O)N(Cc2ccccc2)c2ccc(C)cc23)cc1` (stereo not shown) [Compound 33, 1-benzyl-5-methyl-5′-(4-methylphenyl)-3′H-spiro[indole-3,2′-[1,3,4]thiadiazol]-2(1H)-one], the half-maximal inhibitory concentration (IC50) came to 612 nM.
In the case of `Cc1cc(C)c2c(c1)C1(NN=C(c3ccccc3)S1)C(=O)N2` (stereo not shown) [Compound 34, 5,7-dimethyl-5′-phenyl-3′H-spiro[indole-3,2′-[1,3,4]thiadiazol]-2(1H)-one], the concentration for half-maximal inhibition (IC50) worked out at 4670 nM.
As to `COc1ccc2c(c1)C1(NN=C(c3ccccc3)S1)C(=O)N2` (stereo not shown) [Compound 35, 5-methoxy-5′-phenyl-3′H-spiro[indole-3,2′-[1,3,4]thiadiazol]-2(1H)-one], the “% Inhibition” value was found to be 41%.
For `CCCc1ccc2c(c1)NC(=O)C21NN=C(c2ccc(C)cc2)S1` (stereo not shown) [Compound 37, 5′-(4-methylphenyl)-6-propyl-3′H-spiro[indole-3,2′-[1,3,4]thiadiazol]-2(1H)-one], the IC50 came out at 1400 nM.
For the compound `O=C1N(c2ccccc2)c2ccccc2C12NN=C(c1ccccc1)S2` (stereo not shown) [Compound 38, 1,5′-diphenyl-3′H-spiro[indole-3,2′-[1,3,4]thiadiazol]-2(1H)-one], the half-inhibitory concentration (IC50) came to 2620 nM.
For the compound `O=C1Nc2cc(F)c(F)cc2C12NN=C(c1ccccc1)S2` (stereo not shown) [Compound 39, 5,6-difluoro-5′-phenyl-3′H-spiro[indole-3,2′-[1,3,4]thiadiazol]-2(1H)-one], the IC50 came out at 14300 nM.

A word on the % Inhibition: it is the change of the read-out against control, counted positive when it falls. By IC50 is commonly meant the point on the concentration scale where inhibition reaches its midpoint.
